Test results published in patent US7374875B2, “Peptides having affinity for the gp120 viral protein and use thereof” (priority 2001, dated 2008).

Tested on: PHA-P-activated PBMCs
Experiment: Toxicity test, viability of PHA-P-activated PBMCs
Assay type: cell-based, human
Details: at the doses tested
Procedure: The PBMCs are separated from the other represented elements of the blood by ficoll (MSL 2000, Eurobio) gradient centrifiguation: 30 ml of blood, from a healthy donor, diluted by a third are deposited onto a 20 ml ficoll cushion. After centrifugation for 20 min at 850 g, the ring of PBMCs is removed and then washed twice with RPMI 1640, after centrifugation at 750 g for 10 min and at 400 g for 5 min. The PBMCs are then activated for 48 h with 1 μg/ml of phytohaemagglutinin-P (PHA-P; Difco Laboratories). The PBMCs are cultured at +37° C., in an atmosphere saturated with humidity, under 5% CO2. At the end of the 48 hours of mitogenic activation, they are cultured in medium B. Throughout the culturing, the culture supernatants are sampled, and the culture media are renewed every three or four days. At each renewal of the culture media, the cell viability is evaluated by microscopic observation.
In all the experiments, the effects of the new molecules were compared to those of AZT. […] CD4 mimetic toxicity tests were also carried out on the same cells.

## Cc1cn([C@H]2C[C@H](N=[N+]=[N-])[C@@H](CO)O2)c(=O)[nH]c1=O [AZT]
  viability of the PHA-P-activated PBMCs (in words): none of the compounds, AZT, SAH-CD4 or anti-CD4 mimetics, decreased the viability
